Experimental data: patent US20260285859A1, “BI-CYCLIC PYRIMIDINE COMPOUNDS, METHODS AND USES THEREOF” (Zeno Management, Inc., priority 2023, published 2026)

Legend:
PKMYT1 = target: T1, PKMYT1 (Homo sapiens, UniProt Q99640); assay: LanthaScreen Eu Kinase Binding Assay, PKMYT1
T1 sequence (Q99640 1-499): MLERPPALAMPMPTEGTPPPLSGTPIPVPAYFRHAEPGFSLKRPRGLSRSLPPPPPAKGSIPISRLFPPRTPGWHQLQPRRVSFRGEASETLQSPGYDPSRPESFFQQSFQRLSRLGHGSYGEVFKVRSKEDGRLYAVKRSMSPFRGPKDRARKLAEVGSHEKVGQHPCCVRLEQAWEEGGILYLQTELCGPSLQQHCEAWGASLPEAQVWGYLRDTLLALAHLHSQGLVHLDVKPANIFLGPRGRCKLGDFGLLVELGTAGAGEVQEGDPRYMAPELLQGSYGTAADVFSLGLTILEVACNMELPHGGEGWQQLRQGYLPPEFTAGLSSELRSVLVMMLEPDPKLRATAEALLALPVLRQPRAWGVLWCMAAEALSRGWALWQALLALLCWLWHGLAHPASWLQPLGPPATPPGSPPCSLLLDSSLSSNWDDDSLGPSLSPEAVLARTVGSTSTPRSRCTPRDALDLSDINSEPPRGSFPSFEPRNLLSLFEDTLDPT
Procedure: (§1) Binding of the tracer to the kinase is detected using a europium-labeled anti-GST antibody, which binds to the fused tag on the kinase protein. […] Inhibitor binding to the kinase competes with tracer binding, resulting in loss of FRET from the donor/acceptor pairs.
(§2) Kinase/Antibody Mixtures and Tracer are diluted to a 2× and 4× working concentration, respectively in this same buffer. […] 0% displacement (no known inhibitor) and 100% displacement (highest concentration of known inhibitor) controls were included on each plate for maximum and minimum Emission Ratio determination, respectively. Dasatinib was used for both PKMYT1 and WEE1 as the known inhibitor.
(§3) IC50 determination was performed using a non-linear regression, variable slope (four parameter), inhibitor v. response equation (Prism 9.0).

WEE1 = WEE1 (Homo sapiens, UniProt P30291); assay: LanthaScreen Eu Kinase Binding Assay, WEE1
Chain of WEE1 (P30291 whole entry): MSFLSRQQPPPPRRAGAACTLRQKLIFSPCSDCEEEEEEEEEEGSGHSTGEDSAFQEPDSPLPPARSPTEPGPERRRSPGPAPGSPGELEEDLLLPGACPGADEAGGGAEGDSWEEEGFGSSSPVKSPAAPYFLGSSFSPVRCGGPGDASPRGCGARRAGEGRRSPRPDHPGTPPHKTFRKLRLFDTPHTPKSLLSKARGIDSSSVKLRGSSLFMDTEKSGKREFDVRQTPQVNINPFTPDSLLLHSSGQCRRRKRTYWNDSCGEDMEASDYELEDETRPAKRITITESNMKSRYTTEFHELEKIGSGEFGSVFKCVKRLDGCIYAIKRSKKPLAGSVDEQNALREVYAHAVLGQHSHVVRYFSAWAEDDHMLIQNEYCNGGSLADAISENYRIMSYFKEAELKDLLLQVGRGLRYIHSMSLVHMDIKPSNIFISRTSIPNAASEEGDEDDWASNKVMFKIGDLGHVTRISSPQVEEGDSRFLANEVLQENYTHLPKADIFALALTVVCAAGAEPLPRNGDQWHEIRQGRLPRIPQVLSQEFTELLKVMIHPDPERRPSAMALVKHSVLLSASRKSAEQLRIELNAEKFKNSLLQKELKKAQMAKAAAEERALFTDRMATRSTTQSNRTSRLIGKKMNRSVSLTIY
Procedure: as §1, §2, §3

Cc1ccc(O)c(C)c1-c1nc(N(C)C2(C(F)(F)F)CC2)cc2c(N)ncnc12 (single isomer, unassigned) [Compound 42-B]
IC50 (PKMYT1): < 10 nM | IC50 (WEE1): 100 to 1000 nM

Cc1ccc(O)c(C)c1-c1nc(N2CCCC2=O)cc2c(N)ncnc12 (single isomer, unassigned) [Compound 43-B]
IC50 (PKMYT1): < 10 nM | IC50 (WEE1): > 1000 nM

Cc1ccc(O)c(C)c1-c1nc(N(C)C2CCCC2)cc2c(N)ncnc12 (single isomer, unassigned) [Compound 44-B]
IC50 (PKMYT1): < 10 nM | IC50 (WEE1): 100 to 1000 nM

CC[C@H](C)N(C)c1cc2c(N)ncnc2c(-c2c(C)ccc(O)c2C)n1 (single isomer, unassigned) [Compound 45-B]
IC50 (PKMYT1): 10 to 100 nM | IC50 (WEE1): > 1000 nM

Cc1ccc(O)c(C)c1-c1nc(N(C)c2cnn(C)c2)cc2c(N)ncnc12 (single isomer, unassigned) [Compound 46-B]
IC50 (PKMYT1): < 10 nM | IC50 (WEE1): > 1000 nM

Cc1ccc(O)c(C)c1-c1nc(C(F)F)cc2c(N)ncnc12 (single isomer, unassigned) [Compound 48-B]
IC50 (PKMYT1): 10 to 100 nM | IC50 (WEE1): > 1000 nM

COc1cc2c(N)ncnc2c(-c2c(C)ccc(O)c2C)n1 (single isomer, unassigned) [Compound 49-B]
IC50 (PKMYT1): 10 to 100 nM | IC50 (WEE1): > 1000 nM

Cc1ccc(O)c(C)c1-c1nc(C(C)C)cc2c(N)ncnc12 (single isomer, unassigned) [Compound 50-B]
IC50 (PKMYT1): 10 to 100 nM | IC50 (WEE1): > 1000 nM

Cc1ccc(O)c(C)c1-c1c(C)c(N(C)C)cc2c(N)ncnc12 (single isomer, unassigned) [Compound 51-B]
IC50 (PKMYT1): 10 to 100 nM | IC50 (WEE1): > 1000 nM

Cc1cc2c(N)ncnc2c(-c2c(C)ccc(O)c2C)c1C (single isomer, unassigned) [Compound 52-B]
IC50 (PKMYT1): 10 to 100 nM | IC50 (WEE1): > 1000 nM

Cc1cc(-c2c(C)ccc(O)c2C)c2ncnc(N)c2c1 (single isomer, unassigned) [Compound 53-B]
IC50 (PKMYT1): 10 to 100 nM | IC50 (WEE1): > 1000 nM

Cc1ccc(O)c(C)c1-c1nc(N2CC[C@@](C)(F)C2)cc2c(N)ncnc12 (single isomer, unassigned) [Compound 54-B]
IC50 (PKMYT1): < 10 nM | IC50 (WEE1): 100 to 1000 nM

Cc1ccc(O)c(C)c1-c1nc(N2CC[C@](C)(F)C2)cc2c(N)ncnc12 (single isomer, unassigned) [Compound 55-B]
IC50 (PKMYT1): < 10 nM | IC50 (WEE1): 100 to 1000 nM

Cc1ccc(O)c(C)c1-c1nc(C2=CCOCC2)cc2c(N)ncnc12 (single isomer, unassigned) [Compound 56-B]
IC50 (PKMYT1): < 10 nM | IC50 (WEE1): 100 to 1000 nM

C=C(C)c1cc2c(N)ncnc2c(-c2c(C)ccc(O)c2C)n1 (single isomer, unassigned) [Compound 57-B]
IC50 (PKMYT1): < 10 nM | IC50 (WEE1): > 1000 nM

Cc1ccc(O)c(C)c1-c1nc(N2CC[C@@H](F)C2)cc2c(N)ncnc12 (single isomer, unassigned) [Compound 58-B]
IC50 (PKMYT1): < 10 nM | IC50 (WEE1): 100 to 1000 nM

Cc1ccc(O)c(C)c1-c1nc(N2CC[C@H](F)C2)cc2c(N)ncnc12 (single isomer, unassigned) [Compound 59-B]
IC50 (PKMYT1): < 10 nM | IC50 (WEE1): 100 to 1000 nM

Cc1cc2c(N)ncnc2c(-c2c(C)ccc(O)c2C)n1 [Compound 17-B, (S)-3-(4-Amino-6-methylpyrido[3,4-d]pyrimidin-8-yl)-2,4-dimethylphenol]
IC50 (PKMYT1): 10 to 100 nM | IC50 (WEE1): > 1000 nM

Cc1ccc(O)c(C)c1-c1nc(-c2ccncc2)cc2c(N)ncnc12 [Compound 32-B, (S)-3-(4-amino-6-(pyridin-4-yl)pyrido[3,4-d]pyrimidin-8-yl)-2,4-dimethylphenol]
IC50 (PKMYT1): < 10 nM | IC50 (WEE1): 100 to 1000 nM

[2H]C([2H])([2H])N(c1cc2c(N)ncnc2c(-c2c(C)ccc(O)c2C)n1)C1CC1 [Compound 60-B, (S)-3-(4-amino-6-(cyclopropyl(methyl-d3)amino)pyrido[3,4-d]pyrimidin-8-yl)-2,4-dimethylphenol]
IC50 (PKMYT1): < 10 nM | IC50 (WEE1): 100 to 1000 nM

Cc1ccc(O)c(C)c1-c1nc(N(C)[C@H]2[C@@H]3COC[C@@H]32)cc2c(N)ncnc12 [Compound 61-B, 3-((S)-6-(((1R,5S,6r)-3-oxabicyclo[3.1.0]hexan-6-yl)(methyl)amino)-4-aminopyrido[3,4-d]pyrimidin-8-yl)-2,4-dimethylphenol]
IC50 (PKMYT1): < 10 nM | IC50 (WEE1): > 1000 nM

CO[C@H]1C[C@@H](N(C)c2cc3c(N)ncnc3c(-c3c(C)ccc(O)c3C)n2)C1 [Compound 62-B, 3-((S)-4-amino-6-(((1s,3R)-3-methoxycyclobutyl)(methyl)amino)pyrido[3,4-d]pyrimidin-8-yl)-2,4-dimethylphenol]
IC50 (PKMYT1): < 10 nM | IC50 (WEE1): > 1000 nM

CO[C@H]1C[C@H](N(C)c2cc3c(N)ncnc3c(-c3c(C)ccc(O)c3C)n2)C1 [Compound 62-D, 3-((S)-4-amino-6-(((1r,3S)-3-methoxycyclobutyl)(methyl)amino)pyrido[3,4-d]pyrimidin-8-yl)-2,4-dimethylphenol]
IC50 (PKMYT1): < 10 nM | IC50 (WEE1): > 1000 nM

[2H]C([2H])([2H])N(c1cc2c(N)ncnc2c(-c2c(C)ccc(O)c2C)n1)[C@H]1[C@@H]2COC[C@@H]21 [Compound 63-B, 3-((S)-6-(((1R,5S,6r)-3-oxabicyclo[3.1.0]hexan-6-yl)(methyl-d3)amino)-4-aminopyrido[3,4-d]pyrimidin-8-yl)-2,4-dimethylphenol]
IC50 (PKMYT1): < 10 nM | IC50 (WEE1): > 1000 nM

Cc1ccc(O)c(C)c1-c1cc(C2=CCOCC2)nc2c(N)ncnc12 [Compound 71-B, (R)-3-(4-amino-6-(3,6-dihydro-2H-pyran-4-yl)pyrido[3,2-d]pyrimidin-8-yl)-2,4-dimethylphenol]
IC50 (PKMYT1): < 10 nM | IC50 (WEE1): 100 to 1000 nM

Cc1ccc(O)c(C)c1-c1cc(NC2CC2)nc2c(N)ncnc12 [Compound 72-B, (R)-3-(4-amino-6-(cyclopropylamino)pyrido[3,2-d]pyrimidin-8-yl)-2,4-dimethylphenol]
IC50 (PKMYT1): < 10 nM | IC50 (WEE1): > 1000 nM

Cc1ccc(O)c(C)c1-c1cc(N(C)C)nc2c(N)ncnc12 [Compound 73-B, (R)-3-(4-Amino-6-(dimethylamino)pyrido[3,2-d]pyrimidin-8-yl)-2,4-dimethylphenol]
IC50 (PKMYT1): 10 to 100 nM | IC50 (WEE1): > 1000 nM

Cc1cc(-c2c(C)ccc(O)c2C)c2ncnc(N)c2n1 [Compound 74-B, (R)-3-(4-amino-6-methylpyrido[3,2-d]pyrimidin-8-yl)-2,4-dimethylphenol]
IC50 (PKMYT1): 10 to 100 nM | IC50 (WEE1): > 1000 nM

Cc1ccc(O)c(C)c1-c1cc(N(C)C2CC2)nc2c(N)ncnc12 [Compound 75-B, (R)-3-(4-amino-6-(cyclopropyl(methyl)amino)pyrido[3,2-d]pyrimidin-8-yl)-2,4-dimethylphenol]
IC50 (PKMYT1): 10 to 100 nM | IC50 (WEE1): > 1000 nM

Cc1ccc(O)c(C)c1-c1cc(C2CC2)nc2c(N)ncnc12 [Compound 76-B, (R)-3-(4-amino-6-cyclopropylpyrido[3,2-d]pyrimidin-8-yl)-2,4-dimethylphenol]
IC50 (PKMYT1): < 10 nM | IC50 (WEE1): > 1000 nM
